Assays:
[1] = Deoxyribose degradation as a measure of hydroxyl-radical generation.; format: functional
[2] = In vitro for antiproliferate activity against HaCaT cells; format: functional, cell-based; details: Homo sapiens
[3] = Partition coefficient (logP); format: physicochemical; details: octanol/water
[4] = Compound was measured for lactate dehydrogenase (LDH) release in HaCaT cells after treatment with 2 uM; format: functional, Homo sapiens

logP [3] | Structure (SMILES) | Activity (uM of MDA (mM of deoxyribose)-1) [1] | IC50 [2] [µM] | LDH [4] [MU]
4.2 | COc1ccc(CC(=O)C2c3cccc(O)c3C(=O)c3c(O)cccc32)cc1 | < 0.2 | 1.1 | 143
5.51 | O=C1c2c(O)cccc2C(CCCc2ccccc2)c2cccc(O)c21 | < 0.2 | > 5 | 130
4.45 | COc1ccc(CC2c3cccc(O)c3C(=O)c3c(O)cccc32)cc1 | < 0.2 | > 5 | 152
3.47 | O=C1c2c(O)cccc2C(Cc2ccncc2)c2cccc(O)c21 | 1.25 | 1.8 | 179
4.16 | O=C1c2c(O)cccc2C(Cc2ccc([N+](=O)[O-])cc2)c2cccc(O)c21 | < 0.2 | < 5 | 142
4.37 | COc1cc(CCC2c3cccc(O)c3C(=O)c3c(O)cccc32)cc(OC)c1OC | 0.97 | 4.1 | 
3.09 | O=C1c2c(O)cccc2C(CCc2cc(O)c(O)c(O)c2)c2cccc(O)c21 | 2.3 | > 5 | 225
 | O=C1c2c(O)cccc2Cc2cccc(O)c21 [ANTHRALIN] |  | 0.7 | 294
4.55 | COc1ccc(CCC2c3cccc(O)c3C(=O)c3c(O)cccc32)cc1OC | < 0.2 | 3 | 
5.27 | O=C1c2c(O)cccc2C(CCc2ccccc2)c2cccc(O)c21 | < 0.2 | < 5 | 
5.72 | O=C1c2c(O)cccc2C(CCCCc2ccccc2)c2cccc(O)c21 | < 0.2 | < 5 | 
5.07 | COc1ccc(CCC2c3cccc(O)c3C(=O)c3c(O)cccc32)cc1 | < 0.2 | 0.9 | 129
4.1 | O=C1c2c(O)cccc2C(CCc2ccc(O)cc2)c2cccc(O)c21 | 0.4 | 3.8 | 136
3.65 | O=C1c2c(O)cccc2C(CCc2ccc(O)c(O)c2)c2cccc(O)c21 | 0.56 | > 5 | 
 | O=C1c2c(O)cccc2C(Cc2ccccc2)c2cccc(O)c21 | 0.35 | > 5 | 150

Reference: ChEMBL document CHEMBL1131554, “10-omega-phenylalkyl-9(10H)-anthracenones as inhibitors of keratinocyte growth with reduced membrane damaging properties” (Bioorg Med Chem Lett, 1998)
